In patent publication US20230098438A1, “OXAZINE-BASED WATER-SOLUBLE FLUOROPHORE COMPOUNDS FOR IN VIVO NERVE IMAGING” (Oregon Health & Science University, priority 2020, published 2023):
Entries after “also recorded” stand apart in the source; their conditions may differ.

What was measured:
nerve tissue = details: previous studies; fluorescence nerve imaging; cited from earlier work
[1] = Solubility testing in ultrapure water; details: kinetic from dmso stock
Method: Each compound was dissolved at high concentration (50 mg/mL) in dimethyl sulfoxide (DMSO) to create a stock solution. Stock solutions were spiked into ultrapure water beginning with a 50 μg/mL concentration and the aqueous solution was vortexed to mix. Resulting solutions were centrifuged at 15,000 rpm for 2 min and examined for a pellet or precipitation signifying insoluble compound.

[2] = NOAEL (no-observed-adverse-effect-level)
[3] = no-observed-adverse-effect-level

| Compound | nerve specificity (nerve tissue) | solubility [1] [µg/mL] | NOAEL ([2]; in vivo) [mg/kg] | NOAEL [2, 3] [mg/kg] |
| --- | --- | --- | --- | --- |
| CCNc1cc2oc3cc(=[N+](CC)CC)ccc-3nc2cc1C [Comparative Example No. 1, 3-(diethyl-λ4-azaneylidene)-N-ethyl-8-methyl-3H-phenoxazin-7-amine, reference compound] | high nerve specificity | 100 | 3 |  |
| CCNc1cc2oc3c/c(=[N+](\CC)CCCS(=O)(=O)[O-])ccc-3nc2cc1C [Example No. 1, (E)-3-(ethyl(7-(ethylamino)-8-methyl-3H-phenoxazin-3-ylidene)ammonio)propane-1-sulfonate] |  | > 5000 | 30 |  |
| CCNc1cc2oc3cc(=[N+](CCOCCOCCOC)CCOCCOCCOC)ccc-3nc2cc1C [Example No. 9, N-(7-(ethylamino)-8-methyl-3H-phenoxazin-3-ylidene)-2-(2-(2-methoxyethoxy)ethoxy)-N-(2-(2-(2-methoxyethoxy)ethoxy)ethyl)ethan-1-aminium] |  | > 5000 | 30 |  |
| CC/N=c1/cc2oc3cc(NCC)c(C)cc3nc-2cc1C [Oxazine 4] | high nerve-specificity; also recorded: high nerve specificity |  |  |  |
| (E)-N-ethyl-N-(7-(ethylamino)-8-methyl-3H-phenoxazin-3-ylidene)-2-(2-(2-methoxyethoxy)ethoxy)ethan-1-aminium [Example No. 7] |  |  |  | 5 |
| (E)-N^1-ethyl-N^1-(7-(ethylamino)-8-methyl-3H-phenoxazin-3-ylidene)-N^3,N^3,N^3-trimethylpropane-1,3-diaminium [Example No. 2] |  |  |  | 2 |
| N-(7-(ethylamino)-8-methyl-3H-phenoxazin-3-ylidene)-2-(2-methoxyethoxy)-N-(2-(2-methoxyethoxy)ethyl)ethan-1-aminium [Example No. 8] |  |  |  | 10 |
| N-(7-(ethylamino)-8-methyl-3H-phenoxazin-3-ylidene)-2-methoxy-N-(2-methoxyethyl)ethan-1-aminium [Example No. 5] |  |  |  | 4 |
